The target in the test is T1, TaFAR3 (Triticum aestivum, UniProt A0A142IX60).
T1 construct: gene FAR3; full-length ORF, 497 residues (1,494 bp), untagged expression from pYES2/pYES3 in Saccharomyces cerevisiae; gene on chromosome 4BS
T1 sequence (A0A142IX60 1-497): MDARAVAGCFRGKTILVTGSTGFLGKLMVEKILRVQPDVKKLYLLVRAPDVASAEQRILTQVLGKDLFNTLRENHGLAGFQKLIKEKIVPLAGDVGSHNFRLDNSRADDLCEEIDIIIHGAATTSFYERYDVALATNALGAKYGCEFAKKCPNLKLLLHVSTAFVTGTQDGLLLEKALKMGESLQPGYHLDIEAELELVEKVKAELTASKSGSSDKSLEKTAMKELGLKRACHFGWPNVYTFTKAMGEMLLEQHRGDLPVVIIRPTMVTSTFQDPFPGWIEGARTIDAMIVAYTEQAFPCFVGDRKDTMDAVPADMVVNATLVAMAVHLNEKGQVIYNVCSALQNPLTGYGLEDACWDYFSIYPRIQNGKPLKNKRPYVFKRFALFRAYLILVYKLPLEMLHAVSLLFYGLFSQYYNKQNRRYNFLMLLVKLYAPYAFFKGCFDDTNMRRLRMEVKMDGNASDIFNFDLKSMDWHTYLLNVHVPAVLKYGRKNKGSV
Nature of the test: heterologous expression in yeast, lipid extraction, TLC and GC-MS. The settings on record: yeast mutant INVSur4# (Sur4 F262A/K266L); endogenous acyl-CoA substrates; none in empty-vector control. The format is cell-based.

1 compound from paper PMC4845010, “Three TaFAR genes function in the biosynthesis of primary alcohols and the response to abiotic stresses in Triticum aestivum” (Scientific Reports, 2016) can be followed below.

Molecules are shown by their SMILES.

`CCCCCCCCCCCCCCCCCCCCCCCCCCCCO` [C28:0-OH]: the “heterologous expression in yeast, lipid extraction, TLC and GC-MS” value was “In the case of TaFAR3, the highest production of primary alcohol was C28:0-OH”.
